Experimental findings from patent publication US10428026B2, “Pyridinone dicarboxamide for use as bromodomain inhibitors” (GlaxoSmithKline Intellectual Property (No.2) Limited, priority 2015, dated 2019) are described below.

The assay deals with T1, BRD4 BD2 (Homo sapiens, UniProt O60885, Y97A).
T1 construct: BRD4 (1-477) (Y97A) and (Y390A); made in house; host or cells: E. coli (pET15b vector)
Kind of assay: BRD4 BD2 TR-FRET competition assay. Format: binding. The following applies: BRD4 BD2 TR-FRET; read-out: pIC50 in the BRD4 BD2 assay (converted).

With `CNC(=O)c1cc(C(=O)N[C@@H]2CCCC[C@H]2O)cn(Cc2ccccc2)c1=O` (racemic) [Example 185, (+/−)-1-Benzyl-N5-((trans)-2-hydroxycyclohexyl)-N3-methyl-2-oxo-1,2-dihydropyridine-3,5-dicarboxamide], the IC50 is 1 to 100 µM.
For the molecule `CNC(=O)c1cc(C(=O)N[C@@H]2CCCC[C@@H]2O)cn(Cc2ccccc2)c1=O` (racemic) [Example 186, (+/−)-1-Benzyl-N5-((cis)-2-hydroxycyclohexyl)-N3-methyl-2-oxo-1,2-dihydropyridine-3,5-dicarboxamide], the IC50 is 1 to 100 µM.
In the case of `CNC(=O)c1cc(C(=O)NC[C@H]2CCC[C@@H]2O)cn(Cc2ccccc2)c1=O` (racemic) [Example 196, (+/−)-1-Benzyl-N5-(((1R,2S)-2-hydroxycyclopentyl)methyl)-N3-methyl-2-oxo-1,2-dihydropyridine-3,5-dicarboxamide], the IC50 is 1 to 100 µM.
As to `CNC(=O)c1cc(C(=O)NC[C@@H]2CC[C@@H](O)C2)cn(Cc2ccccc2)c1=O` (racemic) [Example 198, (+/−)-1-Benzyl-N5-(((trans)-3-hydroxycyclopentyl)methyl) N3-methyl-2-oxo-1,2-dihydropyridine-3,5-dicarboxamide], the IC50 is 1 to 100 µM.
The same measure for `CNC(=O)c1cc(C(=O)NC[C@@H]2CC[C@H](O)C2)cn(Cc2ccccc2)c1=O` (racemic) [Example 199, (+/−)-1-Benzyl-N5-(((cis)-3-hydroxycyclopentyl)methyl)-N3-methyl-2-oxo-1,2-dihydropyridine-3,5-dicarboxamide]: 1 to 100 µM; for `CNC(=O)c1cc(C(=O)NC[C@@H]2CCC[C@H](O)C2)cn(Cc2ccccc2)c1=O` (racemic) [Example 206, (+/−)-1-Benzyl-N5-(((1R,3S)-3-hydroxycyclohexyl)methyl)-N3-methyl-2-oxo-1,2-dihydropyridine-3,5-dicarboxamide]: 1 to 100 µM.
Turning to `CCO[C@H]1C[C@H]1NC(=O)c1cc(C(=O)NC)c(=O)n(Cc2cccc(F)c2)c1` (racemic) [Example 208, (+/−)-N5-((cis)-2-ethoxycyclopropyl)-1-(3-fluorobenzyl)-N3-methyl-2-oxo-1,2-dihydropyridine-3,5-dicarboxamide], the IC50 is 1 to 100 µM.
With `CCO[C@H]1C[C@H]1NC(=O)c1cc(C(=O)NC)c(=O)n(Cc2cccc(C)c2)c1` (racemic) [Example 222, (+/−)-N5-((cis)-2-ethoxycyclopropyl)-N3-methyl-1-(3-methylbenzyl)-2-oxo-1,2-dihydropyridine-3,5-dicarboxamide] the figure was 1 to 100 µM; with `CNC(=O)c1cc(C(=O)N[C@@H]2CC[C@H]2OC)cn(Cc2ccccc2)c1=O` (racemic) [Example 243, (+/−)-1-Benzyl-N5-((trans)-2-methoxycyclobutyl)-N3-methyl-2-oxo-1,2-dihydropyridine-3,5-dicarboxamide], 1 to 100 µM; with `CNC(=O)c1cc(C(=O)NC2CC2)cn(CC2CCCc3[nH]cnc32)c1=O` (racemic) [Example 250, (+/−)-N5-Cyclopropyl-N3-methyl-2-oxo-1-((4,5,6,7-tetrahydro-1H-benzo[d]imidazol-4-yl)methyl)-1,2-dihydropyridine-3,5-dicarboxamide], 1 to 100 µM.
On to `CNC(=O)c1cc(C(=O)N[C@@H]2C[C@H]2CO)cn(C(C)c2cccc(C)c2)c1=O` (mixture of isomers) [Example 267, N5-((trans)-2-(Hydroxymethyl)cyclopropyl)-N3-methyl-2-oxo-1-((S*)-1-(m-tolyl)ethyl)-1,2-dihydropyridine-3,5-dicarboxamide], for which the IC50 was 1 to 100 µM.
Turning to `CNC(=O)c1cc(C(=O)N[C@@H]2CCC[C@@H](O)C2)cn(Cc2ccccc2)c1=O` (relative stereo) [Example 217, 1-Benzyl-N5-((1R*,3R*)-3-hydroxycyclohexyl)-N3-methyl-2-oxo-1,2-dihydropyridine-3,5-dicarboxamide], the IC50 was 1 to 100 µM.
For `CNC(=O)c1cc(C(=O)NC2CC2)cn(C(C)c2cccc(C)c2)c1=O` (single isomer, unassigned) [Example 211, (S*)-N5-Cyclopropyl-N3-methyl-2-oxo-1-(1-(m-tolyl)ethyl)-1,2-dihydropyridine-3,5-dicarboxamide], the IC50 is 1 to 100 µM.
On to `CNC(=O)c1cc(C(=O)NC2CC2)cn(C(C)c2ccccc2C)c1=O` (single isomer, unassigned) [Example 213, (R*)-N5-Cyclopropyl-N3-methyl-2-oxo-1-(1-(o-tolyl)ethyl)-1,2-dihydropyridine-3,5-dicarboxamide], for which the IC50 was 1 to 100 µM.
As to `CNC(=O)c1cc(C(=O)NC2CC2(C)C)cn(Cc2ccccc2)c1=O` (single isomer, unassigned) [Example 248, (R*)-1-Benzyl-N5-(2,2-dimethylcyclopropyl)-N3-methyl-2-oxo-1,2-dihydropyridine-3,5-dicarboxamide], the IC50 is 1 to 100 µM.
With `CNC(=O)c1cc(C(=O)NC2CC2)cn(C(CO)c2ccccc2)c1=O` (single isomer, unassigned) [Example 324, (R*)—N^5-Cyclopropyl-1-(2-hydroxy-1-phenylethyl)-N^3-methyl-2-oxo-1,2-dihydropyridine-3,5-dicarboxamide] the figure was 1 to 100 µM; with `CNC(=O)c1cc(C(=O)NC2CCC2)cn(Cc2cnn(C)c2)c1=O` [Example 163, N5-Cyclobutyl-N3-methyl-1-((1-methyl-1H-pyrazol-4-yl)methyl)-2-oxo-1,2-dihydropyridine-3,5-dicarboxamide], 1 to 100 µM.
The same measure for `CNC(=O)c1cc(C(=O)NC2CCC2c2ccccc2)cn(Cc2ccccc2)c1=O` (stereo not drawn) [Example 168, 1-Benzyl-N3-methyl-2-oxo-N5-(2-phenylcyclobutyl)-1,2-dihydropyridine-3,5-dicarboxamide]: 1 to 100 µM; for `CNC(=O)c1cc(C(=O)N[C@H]2C[C@@H](C(=O)O)C2)cn(Cc2ccccc2)c1=O` [Example 169, (cis)-3-(1-Benzyl-5-(methylcarbamoyl)-6-oxo-1,6-dihydropyridine-3-carboxamido)cyclobutane-carboxylic acid]: 1 to 100 µM.
The same measure for `CNC(=O)c1cc(C(=O)NC2CCC2)cn([C@@H](C)c2ccccc2)c1=O` [Example 171, (S)-N5-Cyclobutyl-N3-methyl-2-oxo-1-(1-phenylethyl)-1,2-dihydropyridine-3,5-dicarboxamide]: 1 to 100 µM; for `CNC(=O)c1cc(C(=O)NC2(CC(C)C)CC2)cn(Cc2ccccc2)c1=O` [Example 173, 1-Benzyl-N5-(1-isobutylcyclopropyl)-N3-methyl-2-oxo-1,2-dihydropyridine-3,5-dicarboxamide]: 1 to 100 µM; for `CCOC1CC(NC(=O)c2cc(C(=O)NC)c(=O)n(Cc3ccccc3)c2)C1OC` (stereo not drawn) [Example 177, 1-Benzyl-N5-(3-ethoxy-2-methoxycyclobutyl)-N3-methyl-2-oxo-1,2-dihydropyridine-3,5-dicarboxamide]: 1 to 100 µM.
Regarding `CCCC1(NC(=O)c2cc(C(=O)NC)c(=O)n(Cc3ccccc3)c2)CC1` [Example 178, 1-Benzyl-N3-methyl-2-oxo-N5-(1-propylcyclopropyl)-1,2-dihydropyridine-3,5-dicarboxamide], the IC50 was 1 to 100 µM.
Consider `CNC(=O)c1cc(C(=O)NC2CCC2)cn(Cc2ccc(C(=O)OC)cc2)c1=O` [Example 180, Methyl 4-((5-(cyclobutylcarbamoyl)-3-(methylcarbamoyl)-2-oxopyridin-1(2H)-yl)methyl)benzoate], for which the IC50 is 1 to 100 µM.
The same measure for `CNC(=O)c1cc(C(=O)NC2CC2)cn(CCCc2ccccc2)c1=O` [Example 190, N5-Cyclopropyl-N3-methyl-2-oxo-1-(3-phenylpropyl)-1,2-dihydropyridine-3,5-dicarboxamide]: 1 to 100 µM.
Take `CNC(=O)c1cc(C(=O)NCC2CCCCC2O)cn(Cc2ccccc2)c1=O` (stereo not drawn) [Example 194, 1-Benzyl-N5-((2-hydroxycyclohexyl)methyl)-N3-methyl-2-oxo-1,2-dihydropyridine-3,5-dicarboxamide]: the IC50 is 1 to 100 µM.
Turning to `CNC(=O)c1cc(C(=O)NC[C@H]2CC[C@H](O)CC2)cn(Cc2ccccc2)c1=O` [Example 200, 1-Benzyl-N5-(((trans)-4-hydroxycyclohexyl)methyl)-N3-methyl-2-oxo-1,2-dihydropyridine-3,5-dicarboxamide], the IC50 was 1 to 100 µM.
With `CNC(=O)c1cc(C(=O)NC[C@H]2CC[C@@H](O)CC2)cn(Cc2ccccc2)c1=O` [Example 201, 1-Benzyl-N5-(((cis)-4-hydroxycyclohexyl)methyl)-N3-methyl-2-oxo-1,2-dihydropyridine-3,5-dicarboxamide] the figure was 1 to 100 µM; with `CNC(=O)c1cc(C(=O)NC2CC2CO)cn(Cc2cccc(C)c2F)c1=O` (stereo not drawn) [Example 214, 1-(2-Fluoro-3-methylbenzyl)-N5-(2-(hydroxymethyl)cyclopropyl)-N3-methyl-2-oxo-1,2-dihydropyridine-3,5-dicarboxamide], 1 to 100 µM.
With `CNC(=O)c1cc(C(=O)N[C@@H]2CCC[C@H](O)C2)cn(Cc2ccccc2)c1=O` [Example 219, 1-Benzyl-N5-((1R,3S)-3-hydroxycyclohexyl)-N3-methyl-2-oxo-1,2-dihydropyridine-3,5-dicarboxamide] the figure was 1 to 100 µM.
With `CNC(=O)c1cc(C(=O)NC2CC2)cn(CC2COc3ccccc32)c1=O` (stereo not drawn) [Example 268, N5-Cyclopropyl-1-((2,3-dihydrobenzofuran-3-yl)methyl)-N3-methyl-2-oxo-1,2-dihydropyridine-3,5-dicarboxamide] the figure was 1 to 100 µM; with `CNC(=O)c1cc(C(=O)N[C@H]2C[C@@H]2C)cn(Cc2cc(OC)ccn2)c1=O` [Example 334, 1-((4-Methoxypyridin-2-yl)methyl)-N^3-methyl-N^5-((1S,2S)-2-methylcyclopropyl)-2-oxo-1,2-dihydropyridine-3,5-dicarboxamide], 1 to 100 µM.
For `CNC(=O)c1cc(C(=O)N[C@H]2C[C@@H]2C)cn(Cc2cc(C)ccn2)c1=O` [Example 335, N^3-Methyl-N^5-((1S,2S)-2-methylcyclopropyl)-1-((4-methylpyridin-2-yl)methyl)-2-oxo-1,2-dihydropyridine-3,5-dicarboxamide], the IC50 is 1 to 100 µM.
